Measured values: patent publication US8551947B2, “Treatment of hibernating myocardium with an exendin peptide” (Amylin Pharmaceuticals, LLC, priority 2000, dated 2013)
No end group written: not given here.

Key:
[1] = system: pancreas; details: cited from earlier work
[2] = system: HM dog model (pacing-induced heart failure); assay: Paced dog model of hibernating myocardium: 48 h i.v. infusion, plasma catecholamines and hemodynamics; type: in vivo, Beagle dogs; details: for LV contractility (dP/dt) restored to: Dog A (FIG. 1); for LV ejection fraction (LVEF) improved to: Dog A (FIG. 2); for LV wall thickening: Dog A (FIG. 3); for Cardiac output (CO): Dog A (FIG. 4); for CBF (coronary blood flow) / LVEDP (LV end-diastolic pressure) / LVP (left ventricular pressure) / MVO2 (myocardial oxygen consumption) / dP/dt (left ventricular contractility) / NE (plasma norepinepherine): GLP-1 group
Excerpt: The “paced dog” model, used in the Example below, provides a system to study NM, because the exertion of the heart exceeds the heart's ability to respond, which creates an energy-limited situation. Other suitable animal models are available to study chronically dysfunctional viable myocardium, in dogs and pigs, for example, which allow laboratory study of therapeutic regimens. […] Canty a al., Am. J. Physiol, 277; H417-H422 (1999). Similar animal models in diabetic dogs, mice and rats are available for the study of DCM. Bell (1995); Fein (1990).
Beagle dogs were fitted with telemetry devices that permit tong-term ambulatory data collection in conscious animals. These devices measured LV pressure, myocardial oxygen consumption (MVO2, an expression of myocardial efficiency), coronary flow (CBF), and cardiac output (CO). The dogs were “paced,” such that heart rate was forced up to about 240 beats per minute, for 3-4 weeks, which induces moderate HM in a predictable manner. This HM dog model is an accepted model for assessing the effectiveness of treatments for HM. Kiuchi et al., “Myocardial beta-adrenergic receptor function during the development of pacing-induced heart failure.” J. Clin. Invest. 91: 907-914 (1993).
During the treatment period, “pacing” was discontinued. Plasma catecholamines were assessed before and after infusion, along with LV pressures, coronary and systemic hemodynamics, and MVO2.

[3] = 48 h i.v. infusion 1.5 pmol/kg/min, after vs before
[4] = AFTER 48 h i.v. infusion 1.5 pmol/kg/min

Glu Gly Thr Phe Thr Ser Asp Val Ser Ser Tyr Leu Glu Gly Gln Ala Ala Lys Glu Phe Ile Ala Trp Lau Val Lys Gly Arg Gly (EGTFTSDVSSYLEGQAAKEFIAWLVKGRG; not fully specified; printed as Glu Gly Thr Phe Thr Ser Asp Val Ser Ser Tyr Leu Glu Gly Gln Ala Ala Lys Glu Phe Ile Ala Trp Lau Val Lys Gly Arg Gly) [SEQ ID NO:5]
stimulation of production or release of insulin from the pancreas [1]: do not stimulate production or release of insulin

Glu Gly Thr Phe Thr Ser Asp Val Ser Ser Tyr Leu Glu Gly Gln Ala Ala Lys Glu Phe Ile Ala Trp Leu Val Lys Gly Arg (NH2) (EGTFTSDVSSYLEGQAAKEFIAWLVKGR-NH2) [SEQ ID NO:6]
stimulation of production or release of insulin from the pancreas [1]: do not stimulate production or release of insulin

rGLP-1 (7-36) amide
Effect of treatment on LV end-diastolic pressure (LVEDP), in words [2, 3]: significantly decreasing | Effect of treatment on cardiac output (CO), in words [2, 3]: significantly (*p<0.05) increased | Effect of treatment on coronary blood flow (CBF), in words [2, 3]: significantly (*p<0.05) increased | Effect of treatment on left ventricular contractility (LV dP/dt), in words [2, 3]: significantly (*p<0.05) increased | Effect of treatment on left ventricular pressure (LVP), in words [2, 3]: significantly (*p<0.05) increased | Effect of treatment on myocardial oxygen consumption (MVO2), in words [2, 3]: significantly (*p<0.05) increased | LV contractility (dP/dt) restored to ([2]; 24 hours of treatment, pacing had reduced contractility by 60%): 80 % of baseline | LV contractility (dP/dt) restored to ([2]; 48 hours of treatment): 90 % of baseline | LV ejection fraction (LVEF) improved to ([2]; 24 hours of treatment, pacing had reduced LVEF by 40%): 88 % of the baseline value | LV ejection fraction (LVEF) improved to ([2]; 48 hours of treatment): 95 % of the baseline value | LV wall thickening ([2]; 24 hours of treatment, pacing had reduced wall thickening by 20%): recovered | LV wall thickening ([2]; 48 hours of treatment): 147 % of the baseline value | Cardiac output (CO) ([2]; 24 hours of treatment, pacing had reduced CO by 30%): restored to baseline levels | Cardiac output (CO) ([2]; 48 hours of treatment): 116 % of baseline | CBF (coronary blood flow) [2, 4]: 37 ± 3 mL/min | LVEDP (LV end-diastolic pressure) [2, 4]: 15 ± 1 mm Hg | LVP (left ventricular pressure) [2, 4]: 108 ± 2 mm Hg | MVO2 (myocardial oxygen consumption) [2, 4]: 297 ± 16 ml O2/min | dP/dt (left ventricular contractility) [2, 4]: 2212 ± 86 mm Hg/s | NE (plasma norepinepherine) ([2]; AFTER 48 h i.v. infusion 1.5 pmol/kg/min, *p<0.05): 1.62 ± 0.11* nmol/ml | NE (plasma norepinepherine) ([2]; AFTER 48 h i.v. infusion 1.5 pmol/kg/min, *p<0.05, listed as CLP-1): 1.62 ± 0.11 nmol/mL | CBF (coronary blood flow) ([2]; BEFORE infusion): 27 ± 1 mL/min | LVEDP (LV end-diastolic pressure) ([2]; BEFORE infusion): 25 ± 1 mm Hg | LVP (left ventricular pressure) ([2]; BEFORE infusion): 98 ± 2 mm Hg | MVO2 (myocardial oxygen consumption) ([2]; BEFORE infusion): 246 ± 18 ml O2/min | dP/dt (left ventricular contractility) ([2]; BEFORE infusion): 1127 ± 86 mm Hg/s | NE (plasma norepinepherine) ([2]; BEFORE infusion (after 3-4 weeks pacing), five dogs): 2.30 ± 0.15 nmol/mL | NE (plasma norepinepherine) ([2]; BEFORE infusion (after 3-4 weeks pacing), five dogs, listed as CLP-1): 2.30 ± 0.15 nmol/mL
